Consider twelve molecules from paper PMC9228733, “Novel Radioiodinated and Radiofluorinated Analogues of FT-2102 for SPECT or PET Imaging of mIDH1 Mutant Tumours” (Molecules, 2022).

Where two headings read alike, the source gives them in different places.

For data set [1], the system named is mIDH1. Particulars: cited from earlier work.
Data set [2] in a line: Stability of radiotracer in mouse serum at 37 °C (radio-HPLC). The data set is classed as in vitro ADME. The procedure: (§1) Figure 7 Radioactivity-HPLC chromatograms of the radiotracer (S)-[^125I]2 incubated, for 1, 2, and 3 h post formulation, at room temperature in ethanol, NaCl 0.9% containing 5% ethanol, and DPBS (pH 7.4) containing 5% ethanol, as well as in a mixture of DPBS and mouse serum at 37 °C.
(§2) Figure 8 Radioactivity-HPLC chromatograms of the radiotracer (S)-[^18F]3 incubated, for 0, 1, and 2 h post formulation, at room temperature in ethanol, NaCl 0.9% containing 5% ethanol, and DPBS (pH 7.4) containing 5% ethanol, as well as in a mixture of DPBS and mouse serum at 37 °C.

Data set [3] can be described thus: Stability of radiotracer at room temperature in ethanol, saline or DPBS (radio-HPLC). The data set is classed as physicochemical. Here is the method:
To a solution of organotin precursor (S)-15 in methanol (50 µL, 1 mg/mL) were successively added [^125I]NaI (10-50 µL, 2.1–15.3 MBq), glacial acetic acid (2.5 µL), and a solution of CAT trihydrate (5 µL, 1 mg/mL). The reaction vial was sealed and stirred at room temperature for 5 min before addition of a solution of Na2S2O5 in deionised water (5 µL, 1 mg/mL). The reaction mixture was purified by semipreparative RP-HPLC. The collected fraction was further diluted with deionised water (10 mL) and passed through a Sep-Pak® Plus Light cartridge (beforehand conditioned successively with 10 mL of deionised water, 10 mL of methanol, and 10 mL of deionised water). The cartridge was washed with deionised water (2 mL) and dried with air before elution of the radioiodinated tracer (S)-[^125I]2 with ethanol (500 µL). The radiotracer was finally formulated in saline or DPBS (pH 7.4) to reach an ethanol content of ca. 5% for stability studies.
The aqueous solution of [^18F]F^− in [^18O]H2O was passed through an anion exchange resin (Sep-Pak® Light Accell Plus QMA carbonate cartridge) preconditioned with 10 mL of ethanol, 10 mL of an aqueous solution of lithium trifluoromethanesulfonate (90 mg/mL), and 10 mL of deionised water. Then, a solution of potassium carbonate (50 µg) and lithium trifluoromethanesulfonate (10 mg) in water (550 µL) was passed through the cartridge to elute the radioactivity to the reactor before addition of anhydrous ACN (1 mL). In such conditions, more than 97% of the radioactivity was usually recovered from the cartridge. The solution was dried by azeotropic distillation under reduced pressure and He flow at 100 °C for 12 min. After cooling to 25 °C, anhydrous DMA (2 mL) was added to the reactor. Then, 200 µL of the resulting solution (40–245 MBq, n = 10) was transferred in a glass vial equipped with a magnetic stirrer before addition of a solution of tetrakis(pyridine)copper(II) triflate (Cu(OTf)2(py)4, 14 mg, 20.6 µmol) in anhydrous DMA (250 µL) and a solution of the tin precursor (S)-15 (6.1 mg, 10.0 µmol) in anhydrous DMA (100 µL). The reaction mixture was stirred at 110 °C for 10 min. After cooling to 25 °C, deionised water (25 mL) was added, and the reaction mixture was passed through a Sep-Pak® C18 Plus Light cartridge preconditioned with 10 mL of deionised water, 10 mL of methanol, and 10 mL of deionised water. The cartridge was washed with deionised water (2 mL) and flushed with air before elution of the desired ^18F-labelled radiotracer with ACN (500 µL). For isolation of the radiotracer, the eluate was subjected to semipreparative RP-HPLC. The collected fraction was diluted with deionised water (25 mL) and passed through a Sep-Pak® C18 Plus Light cartridge preconditioned with 10 mL of deionised water, 10 mL of methanol, and 10 mL of deionised water. The cartridge was washed with deionised water (2 mL) and flushed with air before elution of the final (S)-[^18F]3 radiotracer with ethanol (500–600 µL). The radiotracer was finally formulated in saline or DPBS (pH 7.4) to reach an ethanol content of ca. 5% for stability studies.
as §1, §2

In data set [4] the target is T1, wt IDH2 (Homo sapiens, UniProt P48735).
T1 construct: purchased BPS Bioscience
T1 sequence (P48735 40-452): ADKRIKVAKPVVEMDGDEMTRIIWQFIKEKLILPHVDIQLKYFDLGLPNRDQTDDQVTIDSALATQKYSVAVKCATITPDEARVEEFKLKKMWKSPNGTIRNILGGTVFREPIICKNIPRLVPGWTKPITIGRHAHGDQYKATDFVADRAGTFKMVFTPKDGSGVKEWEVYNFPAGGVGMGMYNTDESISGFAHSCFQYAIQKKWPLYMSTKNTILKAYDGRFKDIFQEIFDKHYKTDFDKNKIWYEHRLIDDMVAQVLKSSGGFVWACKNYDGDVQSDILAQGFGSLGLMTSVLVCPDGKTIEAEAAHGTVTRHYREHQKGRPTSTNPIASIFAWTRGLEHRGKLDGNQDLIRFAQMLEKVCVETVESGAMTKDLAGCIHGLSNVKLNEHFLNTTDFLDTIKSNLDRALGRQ
Kind of data set: wt IDH enzyme assay, wt IDH2. Type of data set: biochemical. Particulars: mean of at least three determinations. Here is the method: (§3) wt IDH enzyme assay is a modified version of the assay used for mIDH1. With the conversion of isocitrate to α-KG, this enzyme stoichiometrically converts NADP to NADPH. The produced NADPH, which directly couples to the diaphorase/resazurin system and the resorufin production, can be measured. The protocols for the determination of inhibition of both wt IDH1 and wt IDH2 were conducted as described by Wang et al.. The wt IDH1 (ab113858) was purchased from abcam (Cambridge, UK), and the wt IDH2, from BPS Bioscience (San Diego, CA, USA).
Assays for wt IDH2 were conducted in 50 µL buffer (20 mM TRIS buffer (pH = 7.5), 150 mM NaCl, 10 mM MgCl2, 0.05% BSA, and 4 mM β-mercaptoethanol) containing 50 µM NADP, 70 µM D/L-isocitrate, and 0.05 µg/mL wt IDH2 enzyme (reaction time 1 h at RT). For inhibition assays, triplicate samples of the compounds in the concentration range from 10^−5 to 10^−10 M were incubated with the wt IDH2 and NADP for 1 h before addition of D/L-isocitrate to initiate the reaction together with the direct detection system comprising 20 µg/mL diaphorase and 4 µM resazurin. The reaction was stopped by addition of 5 μL 10% SDS and read as described above. The data were imported into GraphPad Prism, and the IC50 values were calculated with a standard dose−response curve fitting.

Data set [5] has as its target T2, wt IDH1 (Homo sapiens, UniProt O75874).
T2 construct: purchased abcam ab113858
The data set can be described thus: wt IDH enzyme assay, wt IDH1. Type of data set: biochemical. The conditions noted are these: mean of at least three determinations. The procedure: as §3
Briefly, wt IDH1 assays were conducted in 50 µL buffer (20 mM TRIS buffer (pH = 7.5), 150 mM NaCl, 10 mM MgCl2, 0.05% BSA, and 4 mM β-mercaptoethanol) containing 50 µM NADP, 70 µM D/L-isocitrate, and 0.04 µg/mL wt IDH1 enzyme (reaction time 1 h at RT). For inhibition assays, triplicate samples of the compounds in the concentration range from 10^−5 to 10^−10 M were incubated with the wt IDH1 for 1 h before addition of D/L-isocitrate and NADP to initiate the reaction together with the direct detection system comprising 20 µg/mL diaphorase and 4 µM resazurin.

The target in data set [6] is T3, IDH1 R132C (Homo sapiens, UniProt O75874, R132C).
T3 construct: purchased ActiveMotif ACM-31713
The data set can be described thus: Mutant IDH1 enzyme assay (diaphorase/resazurin), IDH1 R132C. The data set is classed as biochemical. Particulars: mean ± SD of at least three determinations. The procedure: (§4) The amount of NADPH remaining at the end of the reaction time is measured in a secondary diaphorase/resazurin reaction in which the NADPH is consumed in a 1:1 molar ratio with the conversion of resazurin to the highly fluorescent resorufin. […] For inhibition assays, triplicate samples of the compounds in the concentration range from 10^−5 to 10^−10 M were incubated with the enzyme for 30 min prior to addition of α-KG and NADPH to initiate the reaction. The reaction ran for 60 min at room temperature and was terminated with the addition of 25 μL of Detection Buffer (36 μg/mL diaphorase, […]) to 50 µL of the reaction solution. […] The data were imported into GraphPad Prism 4.1 (GraphPad Inc.; La Jolla; CA, USA), and the IC50 values were calculated with a standard dose–response curve fitting (Figure S3).

Data set [7] concerns the target T4, IDH1 R132H (Homo sapiens, UniProt O75874, R132H).
T4 construct: purchased BPS Bioscience BPS-79376
The data set can be described thus: Mutant IDH1 enzyme assay (diaphorase/resazurin), IDH1 R132H. Type of data set: biochemical. Particulars: for IC50: mean ± SD of at least three determinations. The procedure: as §4

Where [8] appears, read: butyl-phenyl sulfonamides, read-out: IC50.
Setting [9] is: phenyl-glycine scaffold, mixtures of stereoisomers, read-out: IC50 for mIDH1.

T2 sequence (O75874 whole entry): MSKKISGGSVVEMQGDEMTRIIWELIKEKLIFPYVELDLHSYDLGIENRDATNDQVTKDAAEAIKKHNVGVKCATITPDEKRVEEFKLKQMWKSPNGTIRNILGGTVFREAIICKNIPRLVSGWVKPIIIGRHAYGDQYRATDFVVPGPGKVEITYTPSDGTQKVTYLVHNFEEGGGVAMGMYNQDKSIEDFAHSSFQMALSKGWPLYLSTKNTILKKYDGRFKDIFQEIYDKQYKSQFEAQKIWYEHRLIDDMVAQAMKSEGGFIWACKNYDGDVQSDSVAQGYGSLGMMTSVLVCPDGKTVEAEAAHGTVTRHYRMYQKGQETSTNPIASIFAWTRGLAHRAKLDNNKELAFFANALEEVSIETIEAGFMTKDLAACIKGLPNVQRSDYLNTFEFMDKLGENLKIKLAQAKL
T4 sequence (O75874 whole entry R132H): as the sequence (O75874 whole entry) above, with R132H counted along it
T3 sequence (O75874 whole entry R132C): as the sequence (O75874 whole entry) above, with R132C counted along it

As for `CCCCc1ccc(NS(=O)(=O)c2ccc(C)c(C(=O)N3CCN(c4ccccc4OCC[18F])CC3)c2)cc1` [VII], the IC50 in data set [1] (setting [8]) is 2300 nM.
For the molecule `N#Cc1ccnc(N2C(=O)CCC2C(=O)N(c2cncc([18F])c2)C(C(=O)NC2CC(F)(F)C2)c2ccccc2Cl)c1` (stereo not shown) [I], the half-maximal inhibitory concentration (IC50) in data set [1] (setting [9]) was below 50 nM.
`CCCCc1ccc(NS(=O)(=O)c2ccc(C)c(C(=O)N3CCN(c4ccccc4[125I])CC3)c2)cc1` [VI]: in data set [1] (setting [8]), the IC50 was 1700 nM.
In the case of `Cc1ccccc1C(C(=O)NC1CCCCC1)N(C(=O)n1cnc2ccccc21)c1cccc([18F])c1` (stereo not shown) [II], the IC50 in data set [1] (setting [9]) was below 50 nM.
Consider `C[C@H](Nc1ccc(C#N)n(C)c1=O)c1cc2cc([18F])ccc2[nH]c1=O` [(S)-[^18F]3], for which the “RCP (stability)” value in data set [2] (37 °C, over 2 h) is given as above 99%; in data set [3] (DPBS (pH 7.4) containing 5% ethanol, over 2 h), above 99%; in data set [3] (NaCl 0.9% containing 5% ethanol, over 2 h) it was above 99%; in data set [3] (ethanolic solution from final C18 SPE cartridge, over 2 h), above 99%.
On to `Cc1ccccc1C(C(=O)NC1CCCCC1)N(C(=O)Cn1ccnc1C)c1cccc([125I])c1` (stereo not shown) [IV], for which the IC50 in data set [1] (setting [9]) is below 50 nM.
`C[C@@H](Nc1ccc(C#N)n(C)c1=O)c1cc2cc(F)ccc2[nH]c1=O` [(R)-3, (R)-5-{[1-(6-fluoro-2-oxo-1,2-dihydroquinolin-3-yl)ethyl]-amino}-1-methyl-6-oxo-1,6-dihydropyridine-2-carbonitrile]: the half-maximal inhibitory concentration (IC50) was above 10000 nM in data set [4], above 10000 nM in data set [5], above 10000 nM in data set [6] and 698 ± 145 nM in data set [7].
`C[C@H](Nc1ccc(C#N)n(C)c1=O)c1cc2cc([125I])ccc2[nH]c1=O` [(S)-[^125I]2]: the “RCP (stability)” value is 94.3% in data set [2] (3 h at 37 °C); 97.4% in data set [3] (DPBS pH 7.4, room temperature, 3 h post formulation); 98.0% in data set [3] (ethanolic solution eluted after C18 SPE cartridge, room temperature, 3 h post formulation); 97.2% in data set [3] (formulation medium (saline, ca. 5% ethanol), room temperature, 3 h post formulation).
As for `Cc1ccccc1C(C(=O)NC1CCCCC1)N(C(=O)Cn1ccnc1C)c1cccc([18F])c1` (stereo not shown) [III], the IC50 in data set [1] (setting [9]) is below 50 nM.
`C[C@@H](Nc1ccc(C#N)n(C)c1=O)c1cc2cc(I)ccc2[nH]c1=O` [(R)-2, (R)-5-{[1-(6-iodo-2-oxo-1,2-dihydroquinolin-3-yl)ethyl]-amino}-1-methyl-6-oxo-1,6-dihydropyridine-2-carbonitrile]: the IC50 in data set [4] was above 10000 nM; in data set [5], above 10000 nM; in data set [6], above 10000 nM; in data set [7], 323 ± 83 nM.
On to `C[C@H](Nc1ccc(C#N)n(C)c1=O)c1cc2cc(F)ccc2[nH]c1=O` [(S)-3, (S)-5-{[1-(6-fluoro-2-oxo-1,2-dihydroquinolin-3-yl)ethyl]-amino}-1-methyl-6-oxo-1,6-dihydropyridine-2-carbonitrile], for which the half-inhibitory concentration (IC50) is above 10000 nM in data set [4], above 10000 nM in data set [5], 579 ± 110 nM in data set [6] and 22.7 ± 5.2 nM in data set [7]. In addition, the “decrease of inhibitory potency compared with iodinated compound (S)-2” value in data set [7] (IDH1 R132H) was “fourfold”.
For the molecule `C[C@H](Nc1ccc(C#N)n(C)c1=O)c1cc2cc(I)ccc2[nH]c1=O` [(S)-2, (S)-5-{[1-(6-iodo-2-oxo-1,2-dihydroquinolin-3-yl)ethyl]-amino}-1-methyl-6-oxo-1,6-dihydropyridine-2-carbonitrile], the IC50 in data set [4] is above 10000 nM; in data set [5], above 10000 nM; in data set [6], 160 ± 24 nM; in data set [7] it was 5.23 ± 0.75 nM.
